{
  "source": "patent US20100062939A1",
  "about": "“Herbicide/Safener Combination Comprising Dimethoxytriazinyl-Substituted Difluoromethanesulfonylanilides” (BAYER CROPSCIENCE AG, priority 2008, published 2010)",
  "format_in_all_cases": "in vivo",
  "key": {"wheat (cultivar: Triso)": {"test_system": "wheat (cultivar: Triso)", "assay": "Crop plant compatibility, post-emergence, wheat", "details": "individual compound, no safener", "protocol": "(§1) Seeds of crop plants were placed in sandy loam and then covered with soil. The pots were placed in a greenhouse and kept under good growth conditions for the crop plants. Two weeks after sowing, the test plants were treated at the 1-3 leaf stage. The active compounds of components (A) and (B), formulated in the form of wettable powders, were then sprayed as aqueous suspensions at various dosages onto the green parts of the plants, using an application rate of 300 l of water/ha (converted).\n(§2) The visual scoring of the herbicidal effects in the combination with or without safener was carried out after the number of days stated in the tables (DAT=days after treatment). Scoring was carried out in percent in comparison to the untreated control plants (herbicidal activity in %). 0%=no herbicidal activity, 100%=complete herbicidal activity=complete kill.\n(§3) The safener action was calculated by comparing the herbicidal activity in % of the herbicide combination without (individual compound) and with safener (combination). The difference of the herbicidal activity in % between the individual compound and the combination was then calculated in percent (safener action in %): 0%=no improvement by addition of safener, 100%=complete improvement by addition of safener=maximum crop plant compatibility."}, "[1]": {"test_system": "barley (cultivar: Adonis)", "assay": "Crop plant compatibility, post-emergence, barley", "details": "17 DAT, individual compound, no safener", "protocol": "as §1, §2, §3"}, "corn (cultivar: Oldham)": {"test_system": "corn (cultivar: Oldham)", "assay": "Crop plant compatibility, post-emergence, corn", "details": "17 DAT, individual compound, component A 20 g of ai/ha, no safener", "protocol": "as §1, §2, §3"}, "[2]": {"test_system": "rice (cultivar: Rice Ballila)", "assay": "Crop plant compatibility, post-emergence, rice", "details": "individual compound, no safener", "protocol": "as §1, §2, §3"}, "[3]": {"details": "17 DAT, component A 20 g of ai/ha"}},
  "data": [
    {"molecule": "COc1nc(OC)nc(C(O)c2cccc(F)c2NS(=O)(=O)C(F)F)n1", "note": "(centres unmarked) [compound (A-3)]", "values": [
      {"measurement": "Herbicidal activity in %", "setting": "wheat (cultivar: Triso); 10 DAT, component A 6.7 g of ai/ha", "result": 5, "unit": "%"},
      {"measurement": "Herbicidal activity in %", "setting": "wheat (cultivar: Triso); 17 DAT, component A 2.2 g of ai/ha", "result": 8, "unit": "%"},
      {"measurement": "Herbicidal activity in %", "setting": "wheat (cultivar: Triso); [3]", "result": 20, "unit": "%"},
      {"measurement": "Herbicidal activity in %", "setting": "[1]; component A 6.7 g of ai/ha", "result": 10, "unit": "%"},
      {"measurement": "Herbicidal activity in %", "setting": "[1]; component A 20 g of ai/ha", "result": 20, "unit": "%"},
      {"measurement": "Herbicidal activity in %", "setting": "corn (cultivar: Oldham)", "result": 30, "unit": "%"},
      {"measurement": "Herbicidal activity in %", "setting": "[2]; 10 DAT, component A 2.2 g of ai/ha", "result": 30, "unit": "%"},
      {"measurement": "Herbicidal activity in %", "setting": "[2]; [3]", "result": 50, "unit": "%"}
    ]}
  ]
}
